From paper PMC10470053, “Diverse p120RasGAP interactions with doubly phosphorylated partners EphB4, p190RhoGAP, and Dok1” (The Journal of Biological Chemistry, 2023)
Square brackets hold non-standard residues; d marks the D form. Ends that are not written are not given here. Peptide text beside a SMILES is read from it. pY = N[C@@H](Cc1ccc(OP(=O)(O)O)cc1)C(=O)O

Key:
[1] = system: RasGAP^FL (full-length RasGAP) GAP activity toward H-Ras; experiment: In vitro GAP assay, single turnover fluorescence-based phosphate sensor; format: biochemical, human; conditions: 50 μM peptide, 25 nM RasGAP^FL, 0.8 μM GTP-H-Ras, 1 μM phosphate sensor, 20 mM Tris pH 8, 50 mM NaCl; first 10 min after Mg2+; n = 4 to 14, Mann-Whitney
Description: Finally, to probe whether the conformational movements in the SH2-SH3-SH2 region nonetheless impact catalytic activity in vitro, we conducted GAP assays. […] Our SAXS data for RasGAP^232 may provide a basis for how this is achieved: by inducing local changes in 232 conformations upon peptide engagement. Therefore, we purified full-length RasGAP (residues 1–1047, termed RasGAP^FL, Fig. S2G) and assessed activity against purified H-Ras GTPase domain preloaded with GTP (residues 1–167, Fig. S2H) in a single turnover fluorescence-based phosphate sensor assay that monitors phosphate release in real time ([64]). We find that RasGAP^FL activates H-Ras, as expected (Fig. 6) ([61], [62]). […]
Figure 6 In vitro GAP assays.A, GAP assay for full-length RasGAP activation of GTP-loaded H-Ras. […] Initial rates calculated for each reaction using only the first 10 min after addition of Mg^2+, where the phosphate release rate was linear. […]
H-Ras was preloaded with GTP by mixing purified H-Ras^1-167 protein, 10 mM EDTA, and 10-fold excess GTP in 20 mM Tris pH 8, 100 mM NaCl for 1 h at room temperature. […] Fluorescence excitation and emission settings were 430 nm and 450 nm, respectively with a bandwidth of 10 nm, and readings were taken in 1-min intervals. […]

[2] = target: T1, RasGAP^232 (p120RasGAP N-SH2, SH3, C-SH2, residues 174–444) (Homo sapiens, UniProt P20936, C236S/C261S/C372S/C402S); conditions: ref ([50]), cited from earlier work
T1 construct: (residues 174–444, termed RasGAP^232); hexahistidine (TEV-cleavable) (N, cleaved yes); made in house; host or cells: E. coli Rosetta (DE3)
T1 sequence (P20936 174-444 C236S/C261S/C372S/C402S): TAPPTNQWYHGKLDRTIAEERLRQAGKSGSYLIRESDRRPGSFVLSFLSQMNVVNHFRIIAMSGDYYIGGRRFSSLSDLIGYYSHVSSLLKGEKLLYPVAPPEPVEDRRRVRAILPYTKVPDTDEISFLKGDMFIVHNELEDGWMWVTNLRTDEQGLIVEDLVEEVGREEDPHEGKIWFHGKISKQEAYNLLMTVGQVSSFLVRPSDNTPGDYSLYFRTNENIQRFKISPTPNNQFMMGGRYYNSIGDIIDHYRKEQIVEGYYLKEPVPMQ
Description: Table 1 Isothermal titration calorimetry measurements for p120RasGAP with phosphotyrosine-containing binding partners | column: Kd (μM); n; ΔH (kJ/mol); ΔS (J/mol∗K) || We expressed and purified the region of RasGAP encompassing both SH2 domains with a construct that includes the N-SH2, SH3, and C-SH2 domains (residues 174–444, termed RasGAP^232 ([50])) (Figs. 1A and S2A). Separately, we synthesized peptides containing both phosphotyrosine residues for EphB4 and Dok1 (Fig. 1C). Our previous isothermal titration calorimetry (ITC) study assessed the affinity of RasGAP^232 for doubly phosphorylated p190RhoGAP-A peptide and found a Kd of 10 ± 6 nM for tandem engagement of both phosphotyrosines by both SH2 domains ([50]). In our current study, titration of the dou ...

Compound | effect of peptide on in vitro GAP activity (initial rate of phosphate release) [1] | n ([2]; ITC stoichiometry) | Kd ([2]; ITC) | ΔH ([2]; ITC) | ΔS ([2]; ITC)
SD[pY]AEPMDAVVKPRNEEENI[pY]SVPH [pYpY p190RhoGAP-A, Doubly phosphorylated p190RhoGAP-A peptide (pY1087, pY1105)] | do not impact GAP activity | 0.6 ± 0.1 | 10 ± 6 nM | -31.1 ± 4.78 kcal/mol | −281 ± 77 J/mol∗K
CC[C@H](C)[C@H](NC(=O)[C@H](CCCNC(=N)N)NC(=O)[C@H](CC(C)C)NC(=O)[C@H](CO)NC(=O)[C@H](CC(=O)O)NC(=O)[C@H](CC(C)C)NC(=O)[C@@H]1CCCN1C(=O)[C@H](CCC(=O)O)NC(=O)[C@H](C)NC(=O)[C@H](Cc1ccc(OP(=O)(O)O)cc1)NC(=O)[C@H](CC(C)C)NC(=O)[C@H](C)NC(=O)[C@@H]1CCCN1C(=O)[C@@H]1CCCN1C(=O)[C@H](CO)NC(C)=O)C(=O)N[C@@H](C)C(=O)N1CCC[C@H]1C(=O)N[C@@H](CS)C(=O)N1CCC[C@H]1C(=O)N[C@@H](CO)C(=O)N[C@@H](CCC(N)=O)C(=O)N[C@@H](CC(=O)O)C(=O)N[C@@H](CO)C(=O)N[C@@H](CC(C)C)C(=O)N[C@@H](Cc1ccc(OP(=O)(O)O)cc1)C(=O)N[C@@H](CO)C(=O)N[C@@H](CC(=O)O)C(=O)N1CCC[C@H]1C(=O)N[C@@H](CC(C)C)C(=O)N[C@@H](CC(=O)O)C(=O)N[C@@H](CO)C(=O)N[C@H](C(N)=O)[C@@H](C)O [pYpY Dok1] (Ac-SPPAL[pY]AEPLDSLRIAPCPSQDSL[pY]SDPLDST-NH2) | do not impact GAP activity | – | – | – | –
